Laboratory results reported in US7030087B2, “Synthetic approach to designed chemical structures” (priority 1996, dated 2006).

Experiments:
[1] = test system: endotoxin from E. coli 055:B5; test: Limulus amoebocyte lysate assay (E-TOXATE), endotoxin neutralization; type: biochemical; settings: Table 4; for Endotoxin Neutralization, % neutralization: 5.0 × 10^−6 M Peptide, 0.02 U (0.2 pg) endotoxin from E. coli 055:B5
Experimental: The peptides were tested for their ability to neutralize endotoxin. Quantitative endotoxin activities for these peptides were measured by Limulus amoebocyte lysate assay.
Limulus amoebocyte lysate assay: The ability of synthetic peptides to neutralize endotoxin was detected with the E-TOXATE kit manufactured by Sigma Chemicals (St. Louis, Mo.). […] Peptide or B/PI was incubated with LPS at room temperature for 5 min in 100 ul of a 1:2 dilution of pyrogen-free saline (pH 6.4). The reaction was started by addition of 100 ul of amoebocyte lysate and the final volume was 200 ul. Assuming a 10,000 molecular weight for LPS, the approximate molar ration of B/PI:LPS at neutralization was 3000 to 1.
The peptides were tested according to the method provided above. […] BG38L was used as a positive control in these experiments.

[2] = test system: P. aeruginosa; test: Bactericidal activity assay; type: cell-based, Pseudomonas aeruginosa type 1; settings: for Bactericidal Activity, % killing: 1.2 × 10^−7 M Peptide, 5 × 105 P. aeruginosa; for Bactericidal Activity, % killing at the effective dose: at the Ed for the same peptide; for Bactericidal Activity, Ed, Effective M dose: dose at which the % in brackets was found
Text: Bacteria: P. aeruginosa type 1 is a clinical isolate maintained in the laboratory. The isolate remains a smooth strain and was serotyped by the scheme of Homma. The Pseudomonas strain was maintained by monthly transfer on blood agar plates.
The peptides can be assayed for bactericidal activity against a variety of organisms such as Pseudomonas aeruginosa type 1, P. cepacia ATCC 25608, E. coli B, and Staphylococcus aureus 502A by standard methods.
Pseudomonas aeruginosa type 1 is a clinical isolate. The isolate remains a smooth strain and was serotyped by the scheme of Homma (Jpn. J. Exp. Med. 46:329, 1976). A rough strain, E. coli B and S. aureus 502A were obtained from Paul Quie, University of Minnesota (Minneapolis, Minn.). The characteristics of the S. aureus strain have been described by Shinefield et al. (Amer. J. Dis. Chil. 105:646, 1963). Pseudomonas cepacia ATCC 25608 can be purchased from the ATCC. S. aureus and E. coli were maintained on nutrient agar plates and the Pseudomonas strains were maintained on blood agar plates.
Pyrogen-free solutions were used throughout the assay and all methods that follow. Log phase bacteria were prepared from a culture in brain heart infusion broth (Hovde et al. Infect. Immun. 54:142–148, 1986) and bacteria were washed and resuspended in saline with adjustment to an optical density at 650 nm to provide a yield of about 3×10^8 CFU/ml. Bacteria were diluted 1:10 in 0.08M citrate phosphate buffer, pH 5.6 or pH 7.0, for use in the assay. S. aureus rapidly lost viability in the pH 5.6 buffer and was studied only at pH 7.0. Bactericidal activity was determined by dose response over peptide concentrations ranging from about […] to about 4.1×10^−9M. Bactericidal activity was determined by dose response, preferably determining LD50 by linear regression.

[3] = test system: EC (endothelial cells); test: EC proliferation, 3[H]thymidine incorporation assay; type: cell-based
Experimental: (§1) Since the in vivo situation of tumor associated EC involves the low expression or even absence of ICAM-1, the next set of experiments aimed to study the ability to reinduce ICAM-I expression after bFBF preincubation. […] In these experiments, HUVEC were pretreated for 3 days with bFGF, subsequently PF4 was added for 3 days and, where indicated in the last 16 hours of culture 4 ng/ml TNFα was added. Human umbilical vein derived endothelial cells (HUVEC) were harvested from normal human umbilical cords by perfusion with 0.125% trypsin/EDTA as described previously. Cells were cultured in fibronectin (FN) coated tissue culture flasks in culture medium (RPMI-1640 with 20% human serum (HS), supplemented with 2 mM glutamine and 100 U/ml penicillin and 0.1 mg/ml streptomycin). Immunofluorescence using indirect PE-conjugated reagents required three separate incubations. 1×10^5 EC were fixed for 1 hour in 1% paraformaldehyde, resuspended in 20 μl appropriately diluted Mab and incubated for 1 hour on ice. Subsequently, cells were washed two times in PBS/BSA (0.1%) and incubated for another 30 minutes with biotinylated rabbit-anti-mouse Ig (Dako, Glostrup, Denmark). After another 2 washings, cells were incubated with streptavidin-phycoerythrin conjugate (Dako). Stained cells were analyzed on a FACScan flowcytometer. Data analysis was performed using PCLysys software (Becton Dickinson, Mountain View, Calif.). Statistical significance of observed differences was determined using the Student's t-test.
EC proliferation was measured using a ^3[H]thymidine incorporation assay. EC were seeded in flatbottomed 96-well tissue culture plates (5000 cells/well) and grown for 3 days, in culture medium. In some cultures the proliferation of EC was enhanced by incubation with 10 ng/ml bFGF. During the list 6 hours of the assay, the culture was pulsed with 0.5 μCi [methyl-^3H]thymidine/well. Results are expressed as the arithmetic mean counts per minute (cpm) of triplicate cultures.

[4] = test system: ICAM-1; test: ICAM-1 expression on endothelial cells (immunofluorescence, FACScan); type: cell-based, human; settings: for bFGF mediated downregulation of ICAM-1 (in words): 10 ng/ml bFGF for 3 days, 100 μg/ml added simultaneously
Experimental: In a first series of experiments, PF4 and βpep peptides were tested for their ability to prevent bFGF (fibroblast growth factor) mediated downregulation of ICAM-1. […] Simultaneously 100 μg/ml of each PF4, βpep-14, βpep-16, or medium was added. Mean ICAM-1 fluorescence intensity values were determined.
as §1
The energy of EC to stimulation with inflammatory cytokines was the subject of a next series of experiments. For these experiments, HUVEC (human vascular endothelial cells) were pretreated with 10 ng/ml bFGF for 3 days. Subsequently, cells are subcultured for 3 days with […] in the presence of PF4. For the last 16 hours of the culture 4 ng/ml TNFα was added to induce upregulation of ICAM-1. […] The regulation of ICAM-1 at the protein level was confirmed in Northern blot analysis for detection of ICAM-1 message. In these experiments, HUVEC were cultured for 3 days with bFGF and treated for the last 4 and 24 hours with PF4 (100 μg/ml). TNFα was added 2 hours before isolation of RNA. RNA from a subconfluent EC cultures (75 cm^2 Petri-dishes) incubated with bFGF for different time-points was isolated using an RNA-zol kit (Campro Scientific, Houston, Tex.). Total RNA (10 μg) for each sample was separated in a 0.8% formaldehyde-denaturing gel, transferred to nitrocellulose (Hybond N+, Amersham International, Amersham, UK) and hybridized to a ^32P-labelled 1.9 Kb c-DNA probe, containing the functional sequence of the human ICAM-1 gene (a gift from Dr. B. Seed). Membranes were washed at a high stringency in 0.2×SSC, 0.1% SDS at 50° C. for 1 hour. Filters were exposed to X-ray films (Kodak X-omat, Eastman Kodak Company, Rochester, N.Y.) using an intensifying screen at −80° C. for not less than 12 hr. Autoradiograms were subjected to scanning using a laser densitometer (Model GS670, Bio-Rad, Hercules, Calif.) and data were analysed with the Molecular Analyst PC™ software. The intensity of the major ICAM-1 mRNA transcript was normalized with respect to actin mRNA expression used as a control.

[5] = expt 2 (first, r11), 1 μg/ml, 10 ng/ml bFGF, medium 29079 ± 2506
[6] = expt 2 (first, r11), 1 μg/ml, no bFGF, medium 14296 ± 2490
[7] = expt 2 (first, r11), 10 μg/ml, 10 ng/ml bFGF, medium 29079 ± 2506
[8] = expt 2 (first, r11), 10 μg/ml, no bFGF, medium 14296 ± 2490
[9] = expt 2 (first, r11), 100 μg/ml, 10 ng/ml bFGF, medium 29079 ± 2506
[10] = expt 2 (first, r11), 100 μg/ml, no bFGF, medium 14296 ± 2490
[11] = expt 2 (second, r19), 1 μg/ml, 10 ng/ml bFGF, medium 52808 ± 4092
[12] = expt 2 (second, r19), 1 μg/ml, no bFGF, medium 6780 ± 713
[13] = expt 2 (second, r19), 10 μg/ml, 10 ng/ml bFGF, medium 52808 ± 4092
[14] = expt 2 (second, r19), 10 μg/ml, no bFGF, medium 6780 ± 713
[15] = expt 2 (second, r19), 100 μg/ml, 10 ng/ml bFGF, medium 52808 ± 4092
[16] = expt 2 (second, r19), 100 μg/ml, no bFGF, medium 6780 ± 713

Which “Endotoxin Neutralization, % neutralization” value [1] does the source give for “SIQDLNVSMKLFRKQAKWKLIVKLNDGRELSLD [βpep-14]” here?
The value was 38.8 n = 1%.

What about the “Bactericidal Activity, % killing” value [2] of the same compound?
Its value is 0%.

And the “Bactericidal Activity, % killing at the effective dose” value [2]?
The value was 39.9%.

And the “Bactericidal Activity, Ed, Effective M dose” value [2]?
The value was 960 nM.

What about the “EC proliferation in vitro (in words)” value [3] of the same compound?
Its value is “angiostatic”.

What about the “(3H)-thymidine incorporation” value [3, 5] of the same compound?
Its value is 28695 ± 1062 cpm.

What about the “(3H)-thymidine incorporation” value [3, 6] of the same compound?
Its value is 14184 ± 1775 cpm.

What about the “(3H)-thymidine incorporation” value [3, 7] of the same compound?
Its value is 29530 ± 1608 cpm.

And the “(3H)-thymidine incorporation” value [3, 8]?
Its value is 9886 ± 2114 cpm.

And the “(3H)-thymidine incorporation” value [3, 9]?
The value was 6585 ± 132 cpm.

And the “(3H)-thymidine incorporation” value [3, 10]?
Its value is 3774 ± 299 cpm.

And the “(3H)-thymidine incorporation” value [3, 11]?
Its value is 48443 ± 2700 cpm.

And the “(3H)-thymidine incorporation” value [3, 12]?
Its value is 7214 ± 1668 cpm.

What about the “(3H)-thymidine incorporation” value [3, 13] of the same compound?
Its value is 52126 ± 1258 cpm.

And the “(3H)-thymidine incorporation” value [3, 14]?
The value was 6074 ± 899 cpm.

And the “(3H)-thymidine incorporation” value [3, 15]?
Its value is 7663 ± 715 cpm.

What about the “(3H)-thymidine incorporation” value [3, 16] of the same compound?
Its value is 1062 ± 325 cpm.

What about the “bFGF mediated downregulation of ICAM-1 (in words)” value [4] of the same compound?
The value was “complete block of bFGF mediated downregulation”.

Which results are given for “SIQDLNVSMKLFRKQAKWKIIAKLNDGRELSLD [βpep-16]”?
Endotoxin Neutralization, % neutralization [1]: 100%; Endotoxin Neutralization, % at the effective dose ([1]; at the Ed): 16.5%; Endotoxin Neutralization, Ed, Effective M dose ([1]; dose at which the % in brackets was found): 1.2 µM; Bactericidal Activity, % killing [2]: 0%; Bactericidal Activity, % killing at the effective dose [2]: 24.3%; Bactericidal Activity, Ed, Effective M dose [2]: 960 nM; EC proliferation in vitro (in words) [3]: angiostatic; (3H)-thymidine incorporation [3, 5]: 35447 ± 2621 cpm; (3H)-thymidine incorporation [3, 6]: 15039 ± 2020 cpm; (3H)-thymidine incorporation [3, 7]: 33663 ± 2572 cpm; (3H)-thymidine incorporation [3, 8]: 11881 ± 2545 cpm; (3H)-thymidine incorporation [3, 9]: 7852 ± 875 cpm; (3H)-thymidine incorporation [3, 10]: 4929 ± 749 cpm; (3H)-thymidine incorporation [3, 11]: 47727 ± 447 cpm; (3H)-thymidine incorporation [3, 12]: 7450 ± 737 cpm; (3H)-thymidine incorporation [3, 13]: 44919 ± 2081 cpm; (3H)-thymidine incorporation [3, 14]: 6148 ± 1370 cpm; (3H)-thymidine incorporation [3, 15]: 27071 ± 3277 cpm; (3H)-thymidine incorporation [3, 16]: 2669 ± 370 cpm; bFGF mediated downregulation of ICAM-1 (in words) [4]: complete block of bFGF mediated downregulation

Which results are given for `O=C1CCC(N2C(=O)c3ccccc3C2=O)C(=O)N1` (stereo not drawn) [thalidomide, reference compound]?
EC growth in vitro (in words) [3]: do not affect EC growth in vitro; effect of other inhibitors of angiogenesis on ICAM-1 expression (in words) [4]: did not affect ICAM-1 expression

With thrombospondin-1 [TSP-1] as the compound, how does the “(3H)-thymidine incorporation” value ([3]; expt 4, 10 μg/ml, 10 ng/ml bFGF, medium 31954 ± 1220) read?
The value was 22338 ± 860 cpm.

And the “(3H)-thymidine incorporation” value ([3]; expt 4, 10 μg/ml, no bFGF, medium 18904 ± 1501)?
The value was 8865 ± 639 cpm.

And the “(3H)-thymidine incorporation” value ([3]; expt 4, 25 μg/ml, 10 ng/ml bFGF, medium 31954 ± 1220)?
The value was 10267 ± 797 cpm.

And the “(3H)-thymidine incorporation” value ([3]; expt 4, 25 μg/ml, no bFGF, medium 18904 ± 1501)?
The value was 5565 ± 349 cpm.

And the “effect of other inhibitors of angiogenesis on ICAM-1 expression (in words)” value [4]?
Its value is “same results”.
